pIC50, pKi: −log10 of the molar value. Counter-ions that a name gives are not always drawn. Like-named read-outs stand apart in the source and are kept apart here.
Key:
[1] = biological target: T1, rat brain nicotinic receptor (α7 NAChR) (Rattus norvegicus (Rat), UniProt Q05941); assay type: binding
[2] = Metabolic stability assay in human liver microsomes (HLM); assay type: in vitro ADME; settings: 1 μM
Description: (§1) Protocol 1: Studies were carried out in human and rat liver microsomes (“HLM” and “RLM,” respectively). Human and rat liver microsomes were purchased from BD Gentest. DMSO stocks were prepared for the test compounds. Aliquots of the DMSO solutions were diluted to 0.5 mM by acetonitrile, then further diluted by liver microsomes/buffer to 1.5 μM. 30 μL of 1.5 μM solutions were mixed with 15 μL of 6 mM NADPH, which had been pre-warmed to 37° C., at a final test compound concentration of 1 μM. The plates were kept in a 37° C. water bath for the duration of the experiment. At each time point (0, 5, 15, 30, 45 minutes), 135 μL of acetonitrile was added into corresponding wells. After the final time point was sampled, the plates were shaken at a vibrator (IKA, MTS 2/4) for 10 min (600 rpm/min) and then centrifuged at 5594 g for 15 min (Thermo Multifuge×3R). Aliquots of the supernatant were removed, diluted 1:1 into distilled water, and analyzed by LC-MS/MS. The peak area response ratio to internal standard (PARR) of the compounds at 5, 15, 30, 45 minutes was compared to the PARR at time 0 to determine the percent of test compound remaining at each time point. Half-lives were calculated using Excel software, fitting to a single-phase exponential decay equation.
(§2) Protocol 2: Studies were carried out in human and rat liver microsomes. Buffer solutions were prepared as follows: Buffer A: 1.0 L of 0.1 M monobasic Potassium Phosphate buffer containing 1.0 mM EDTA; Buffer B: 1.0 L of 0.1 M Dibasic Potassium Phosphate buffer containing 1.0 mM EDTA; Buffer C: 0.1 M Potassium Phosphate buffer, 1.0 mM EDTA, pH 7.4 by titrating 700 mL of buffer B with buffer A while monitoring with a pH meter.
(§3) Reference compound (Ketanserin) and test compound spiking solutions were prepared as follows: 500 μM spiking solution: add 10 μL of 10 mM DMSO stock solution into 190 μL ACN; 1.5 μM spiking solution in microsomes (0.75 mg/mL): add 1.5 μL of 500 μM spiking solution and 18.75 μL of 20 mg/mL liver microsomes into 479.75 μL of Buffer C.
(§4) NADPH stock solution (6 mM) was prepared by dissolving NADPH into buffer C.
(§5) Assay procedure: 30 μL of 1.5 μM spiking solution containing 0.75 mg/mL microsomes solution was dispensed to the wells designated for […]. The plate was pre-incubated at 37° C. for 10 minutes. 15 μL of NADPH stock solution (6 mM) was added to the wells designated as Time 45, and the timer was started. At 30 mM, 15 mM, and 5 mM, 15 μL NADPH stock solution (6 mM) was added to the wells, respectively. At the end of incubation (0 mM), 135 μL of ACN containing IS was added to all the wells. Then 15 μL of NADPH stock solution (6 mM) was added to the wells designated as Time 0. After quenching, the reaction mixtures were centrifuged at 3220 g for […]. Following centrifugation, 50 μL of the supernatant was transferred from each well into a 96-well sample plate containing 50 μL of ultra-pure water (Millipore) for LC/MS analysis. The peak area response (PARR) ratio to internal standard of the compounds at 5, 15, 30, and 45 minutes was compared to the PARR at time 0 to determine the percent of test compound remaining at each time point. Half-lives were calculated using Excel software, fitting to a single-phase exponential decay equation.

[3] = Metabolic stability assay in rat liver microsomes (RLM); assay type: in vitro ADME; settings: 1 μM
Description: as §1, §2, §3, §4, §5

CYP2C19 [4] = biological target: T2, CYP2C19 (Homo sapiens (Human), UniProt P33261); settings: microsomes
T2 sequence (P33261 whole entry): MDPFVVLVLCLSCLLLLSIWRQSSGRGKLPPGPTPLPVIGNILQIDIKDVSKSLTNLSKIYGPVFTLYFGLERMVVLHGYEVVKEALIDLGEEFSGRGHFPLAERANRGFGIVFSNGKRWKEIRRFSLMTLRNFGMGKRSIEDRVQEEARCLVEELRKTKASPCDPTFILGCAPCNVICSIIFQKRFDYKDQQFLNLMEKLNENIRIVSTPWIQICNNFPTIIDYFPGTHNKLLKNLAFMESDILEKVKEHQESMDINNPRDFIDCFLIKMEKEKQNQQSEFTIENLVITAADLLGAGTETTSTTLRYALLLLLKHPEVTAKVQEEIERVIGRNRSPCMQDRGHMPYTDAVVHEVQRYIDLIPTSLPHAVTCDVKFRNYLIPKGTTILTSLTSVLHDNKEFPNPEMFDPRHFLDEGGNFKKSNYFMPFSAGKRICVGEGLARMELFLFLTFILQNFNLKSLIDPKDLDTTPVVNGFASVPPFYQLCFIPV

CYP1A2 = CYP1A2 (Homo sapiens (Human), UniProt P05177); assay: Cytochrome P450 inhibition in human liver microsomes, CYP1A2
Sequence of CYP1A2 (P05177 whole entry): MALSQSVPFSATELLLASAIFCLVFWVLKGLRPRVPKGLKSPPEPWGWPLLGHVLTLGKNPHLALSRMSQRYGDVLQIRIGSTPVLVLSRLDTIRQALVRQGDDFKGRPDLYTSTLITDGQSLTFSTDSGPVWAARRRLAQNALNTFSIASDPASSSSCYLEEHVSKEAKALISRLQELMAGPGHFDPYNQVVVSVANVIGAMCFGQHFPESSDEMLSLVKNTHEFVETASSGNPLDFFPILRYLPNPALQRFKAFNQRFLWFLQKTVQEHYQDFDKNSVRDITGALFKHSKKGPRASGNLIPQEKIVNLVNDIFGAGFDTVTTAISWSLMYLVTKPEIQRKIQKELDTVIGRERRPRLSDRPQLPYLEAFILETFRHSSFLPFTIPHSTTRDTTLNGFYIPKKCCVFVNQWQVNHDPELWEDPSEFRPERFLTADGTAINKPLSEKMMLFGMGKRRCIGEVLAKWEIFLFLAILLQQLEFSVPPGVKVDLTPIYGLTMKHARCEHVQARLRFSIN

Human plasma stability = assay type: in vitro ADME; settings: plasma; for % Remaining @ 2 h: 5 μM
Description: Protocol 1: Studies were carried out in human plasma. All plasma was obtained from Bioreclamation and collected on sodium heparin. Plasma was adjusted to pH 7.4. A DMSO stock was first prepared for the test compound. An aliquot of the DMSO solution was dosed into 1 mL of plasma, which had been pre-warmed to 37° C., at a final test compound concentration of 1 μM. The vials were kept in a benchtop Thermomixer® for the duration of the experiment. Aliquots (100 μL) were taken at each time point (0, 15, 30, 60, and 120 minutes) and added to 96-well plates which had been pre-filled with 300 μL of acetonitrile. Samples were stored at 4° C. until the end of the experiment. After the final time point was sampled, the plate was mixed and then centrifuged at 3,000 rpm for 10 minutes. Aliquots of the supernatant were removed, diluted 1:1 into distilled water, and analyzed by LC-MS/MS. The peak area response ratio to internal standard (PARR) of the compound at 15, 30, 60 and 120 minutes was compared to the PARR at time 0 to determine the percent of test compound remaining at each time point. Half-lives were calculated using GraphPad software, fitting to a single-phase exponential decay equation.
Protocol 2: Studies were carried out in plasma. Plasma was prepared under approval of IRB and IACUC on sodium heparin. The pH of plasma was monitored and used within the range of pH 7.4 to pH 8.0. DMSO stocks were prepared for the test compounds. Aliquots of the DMSO solutions were diluted to 0.05 mM by 0.05 mM Sodium phosphate buffer with 0.5% BSA. Then 10 μL of 0.05 mM solutions were dosed into 90 μL of plasma in duplicates (n=2), which had been pre-warmed to 37° C., at a final test compound concentration of 5 μM. The plates were kept in a 37° C. water bath for the duration of the experiment. At each time point (0, 5, 15, 30, 45, 60, and 120 minutes), 400 μL of acetonitrile was added into corresponding wells. After the final time point was sampled, the plates were shaken at the vibrator (IKA, MTS 2/4) for 10 min (600 rpm/min) and then centrifuged at 5594 g for 15 min (Thermo Multifuge×3R). Aliquots of the supernatant were removed, diluted 1:1 into distilled water, and analyzed by LC-MS/MS. The peak area response ratio to internal standard (PARR) of the compounds at 5, 15, 30, 45, 60, and 120 minutes was compared to the PARR at time 0 to determine the percent of test compound remaining at each time point. Half-lives were calculated using Excel software, fitting to a single-phase exponential decay equation.

CYP3A4 = CYP3A4 (Homo sapiens (Human), UniProt P08684); assay: Cytochrome P450 inhibition in human liver microsomes, CYP3A4
Sequence of CYP3A4 (P08684 whole entry): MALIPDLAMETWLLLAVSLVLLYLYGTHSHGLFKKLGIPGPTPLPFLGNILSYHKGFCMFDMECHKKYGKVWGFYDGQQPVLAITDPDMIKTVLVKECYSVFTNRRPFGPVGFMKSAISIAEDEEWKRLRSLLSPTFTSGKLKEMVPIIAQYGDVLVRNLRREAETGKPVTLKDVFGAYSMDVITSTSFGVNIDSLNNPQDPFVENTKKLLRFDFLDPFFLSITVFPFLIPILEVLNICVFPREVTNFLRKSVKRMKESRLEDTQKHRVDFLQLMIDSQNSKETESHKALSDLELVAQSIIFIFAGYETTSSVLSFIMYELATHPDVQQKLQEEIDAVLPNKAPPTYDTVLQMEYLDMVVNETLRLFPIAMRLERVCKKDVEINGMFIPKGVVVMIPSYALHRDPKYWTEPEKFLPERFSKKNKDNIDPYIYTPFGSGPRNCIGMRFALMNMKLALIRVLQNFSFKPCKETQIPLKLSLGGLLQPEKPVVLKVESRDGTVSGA

CYP2C9 = CYP2C9 (Homo sapiens (Human), UniProt P11712); assay: Cytochrome P450 inhibition in human liver microsomes, CYP2C9; settings: read-out: 2C9 IC50, Protocol 1
Sequence of CYP2C9 (P11712 whole entry): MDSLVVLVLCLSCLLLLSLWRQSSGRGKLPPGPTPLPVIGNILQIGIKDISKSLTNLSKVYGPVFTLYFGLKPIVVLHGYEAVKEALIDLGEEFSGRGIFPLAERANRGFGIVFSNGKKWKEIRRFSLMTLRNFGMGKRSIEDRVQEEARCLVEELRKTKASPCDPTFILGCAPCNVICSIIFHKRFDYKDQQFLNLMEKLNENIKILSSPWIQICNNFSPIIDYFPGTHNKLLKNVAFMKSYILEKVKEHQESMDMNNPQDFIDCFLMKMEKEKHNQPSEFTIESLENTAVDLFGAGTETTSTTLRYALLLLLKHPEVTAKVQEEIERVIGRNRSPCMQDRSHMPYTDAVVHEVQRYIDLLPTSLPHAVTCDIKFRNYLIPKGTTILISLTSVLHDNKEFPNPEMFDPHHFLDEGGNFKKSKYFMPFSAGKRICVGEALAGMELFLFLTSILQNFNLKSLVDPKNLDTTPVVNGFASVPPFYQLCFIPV

CYP2C19 [5] = biological target: T2, CYP2C19; assay: Cytochrome P450 inhibition in human liver microsomes, CYP2C19; settings: read-out: 2C19 IC50, Protocol 1
[6] = biological target: T1, rat brain nicotinic receptor (α7 NAChR); assay type: binding; settings: Protocol No. 2; [3H] α-Bungarotoxin 0.4 nM, rat brain P2 membrane
[7] = read-out: 3A4 IC50 (Midazolam), substrate midazolam, Protocol 1
[8] = read-out: 3A4 IC50 (Testosterone), substrate testosterone, Protocol 1
[9] = Protocol No. 1, human liver microsomes
[10] = Protocol No. 1, rat liver microsomes

T1 sequence (Q05941 23-502 limits assumed): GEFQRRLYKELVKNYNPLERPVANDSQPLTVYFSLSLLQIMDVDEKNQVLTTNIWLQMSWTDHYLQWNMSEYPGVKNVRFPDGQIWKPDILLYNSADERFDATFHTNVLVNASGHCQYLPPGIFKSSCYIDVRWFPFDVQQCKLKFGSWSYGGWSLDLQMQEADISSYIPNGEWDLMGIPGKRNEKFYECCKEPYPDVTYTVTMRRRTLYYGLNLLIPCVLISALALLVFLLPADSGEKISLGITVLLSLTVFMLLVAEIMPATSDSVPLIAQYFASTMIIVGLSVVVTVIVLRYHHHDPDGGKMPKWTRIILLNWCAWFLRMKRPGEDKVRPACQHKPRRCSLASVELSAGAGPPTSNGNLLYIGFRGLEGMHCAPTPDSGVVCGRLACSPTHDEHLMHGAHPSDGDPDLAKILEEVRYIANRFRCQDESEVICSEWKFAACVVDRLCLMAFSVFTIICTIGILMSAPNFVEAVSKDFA

Row | Structure (SMILES) | pIC50 [1] | pKi [1] | HLM ([2]; human, microsomes) | RLM ([3]; rat, microsomes) | % Remaining @ 2 h (Human plasma stability; human, 2 h) | pIC50 [6] | pKi [6] | further results
1 | O=C(OCC12CCN(CC1)CC2)c1c[nH]c2ccc(Cl)cc12 [Compound 2, quinuclidin-4-ylmethyl 5-chloro-1H-indole-3-carboxylate] | 6.48 | 6.54 | – | – | – | – | – | HLM ([2]; human, microsomes, pH 7.4): <13.608 mL/min/kg; RLM ([3]; rat, microsomes, pH 7.4): 127.44 mL/min/kg; pIC50 (CYP2C19 [4]): < 5.00; pIC50 (CYP1A2; read-out: 1A2 IC50, Protocol 2): < 5.00
2 | O=C(OCC12CCN(CC1)CC2)c1c[nH]c2c(Cl)cccc12 [Compound 25, quinuclidin-4-ylmethyl 7-chloro-1H-indole-3-carboxylate] | 5.78 | 5.84 | – | – | – | – | – | HLM ([2]; human, microsomes, pH 7.4): <13.608 mL/min/kg; RLM ([3]; rat, microsomes, pH 7.4): 219.053 mL/min/kg; pIC50 (CYP2C19 [4]): < 5.00; pIC50 (CYP1A2; read-out: 1A2 IC50, Protocol 2): < 5.00
3 | Cc1c(F)ccc2[nH]cc(C(=O)OCC34CCN(CC3)CC4)c12 [Compound 43, quinuclidin-4-ylmethyl 5-fluoro-4-methyl-1H-indole-3-carboxylate] | 6.68 | 6.75 | 5.57 mL/min/kg | 469.04 mL/min/kg | 112.99% | – | – | T1/2 (Human plasma stability; human): ∞; pIC50 (CYP3A4; [7]): < 5.00; pIC50 (CYP3A4; [8]): < 5.00; pIC50 (CYP1A2; read-out: 1A2 IC50, Protocol 1): < 5.00; pIC50 (CYP2C9): < 5.00; pIC50 (CYP2C19 [5]): < 5.00
4 | Cc1cc(F)cc2[nH]cc(C(=O)OCC34CCN(CC3)CC4)c12 [Compound 44, quinuclidin-4-ylmethyl 6-fluoro-4-methyl-1H-indole-3-carboxylate] | 6.32 | 6.39 | 3.5 mL/min/kg | 531.35 mL/min/kg | 95.72% | – | – | T1/2 (Human plasma stability; human): ∞; pIC50 (CYP3A4; [7]): < 5.00; pIC50 (CYP3A4; [8]): < 5.00; pIC50 (CYP1A2; read-out: 1A2 IC50, Protocol 1): < 5.00; pIC50 (CYP2C9): < 5.00; pIC50 (CYP2C19 [5]): < 5.00
5 | Cc1cc2c(C(=O)OCC34CCN(CC3)CC4)c[nH]c2cc1C#N [Compound 84, quinuclidin-4-ylmethyl 6-cyano-5-methyl-1H-indole-3-carboxylate] | – | – | – | – | – | 5.48 | 5.14 | HLM [2, 9]: 10.24 mL/min/kg; RLM [3, 10]: 116.21 mL/min/kg; % Remaining @ 2 h (Human plasma stability; Protocol No. 2, 37° C.): 59.79%
6 | COc1cc(C)cc2[nH]cc(C(=O)OCC34CCN(CC3)CC4)c12 [Compound 85, quinuclidin-4-ylmethyl 4-methoxy-6-methyl-1H-indole-3-carboxylate] | – | – | 8.18 mL/min/kg | 59.67 mL/min/kg | 27.28% | 6.75 | 6.45 | –
7 | COc1cc2[nH]cc(C(=O)OCC34CCN(CC3)CC4)c2cc1OC [Compound 87, quinuclidin-4-ylmethyl 5,6-dimethoxy-1H-indole-3-carboxylate] | – | – | – | – | – | 5.81 | 5.57 | HLM [2, 9]: 0.5 mL/min/kg; RLM [3, 10]: 257.71 mL/min/kg; % Remaining @ 2 h (Human plasma stability; Protocol No. 2, 37° C.): 55.42%
8 | Cc1cc(OC(=O)C(C)(C)C)cc2[nH]cc(C(=O)OCC34CCN(CC3)CC4)c12 [Compound 89, quinuclidin-4-ylmethyl 4-methyl-6-(pivaloyloxy)-1H-indole-3-carboxylate] | – | – | 347.66 mL/min/kg | 1154.15 mL/min/kg | 77.23% | 5.97 | 5.67 | –
9 | Cl.O=C(OCC12CCN(CC1)CC2)c1c[nH]c2cc(C(F)(F)F)ccc12 [Compound 90, quinuclidin-4-ylmethyl 6-(trifluoromethyl)-1H-indole-3-carboxylate] | – | – | – | – | – | < 5.52 | < 5.52 | HLM [2, 9]: 5.21 mL/min/kg; RLM [3, 10]: 72.22 mL/min/kg; % Remaining @ 2 h (Human plasma stability; Protocol No. 2, 37° C.): 63.18%
10 | CC(=O)Nc1cc(C)c2c(C(=O)OCC34CCN(CC3)CC4)c[nH]c2c1 [Compound 93, quinuclidin-4-ylmethyl 6-acetamido-4-methyl-1H-indole-3-carboxylate] | – | – | 12.96 mL/min/kg | 12.66 mL/min/kg | 81.38% | 5.88 | 5.54 | –
11 | Cc1c(OCC(F)(F)F)ccc2[nH]cc(C(=O)OCC34CCN(CC3)CC4)c12 [Compound 94, quinuclidin-4-ylmethyl 4-methyl-5-(2,2,2-trifluoroethoxy)-1H-indole-3-carboxylate] | – | – | 2.62 mL/min/kg | 26.52 mL/min/kg | 76.38% | 6.79 | 6.64 | –
12 | Cc1c(OCCO)ccc2[nH]cc(C(=O)OCC34CCN(CC3)CC4)c12 [Compound 95, quinuclidin-4-ylmethyl 5-(2-hydroxyethoxy)-4-methyl-1H-indole-3-carboxylate, 2,2,2-trifluoroacetate salt] | – | – | 2.86 mL/min/kg | 17.75 mL/min/kg | 73.17% | 6.67 | 6.38 | –

Reference: patent US9434724B2, “Quinuclidines for modulating alpha 7 activity” (priority 2014, dated 2016)
